Experimental findings from ChEMBL document CHEMBL3112488, “Discovery of C-(1-aryl-cyclohexyl)-methylamines as selective, orally available inhibitors of dipeptidyl peptidase IV” (Bioorg Med Chem Lett, 2014) are described below.

pIC50: −log10 of the molar value. Bounds are passed on as bounds.

One data set deals with Dipeptidyl peptidase 9 (Homo sapiens, UniProt Q86TI2). Put plainly: Inhibition of human recombinant DPP9.
The next data set concerns the target Cytochrome P450 2D6 (Homo sapiens, UniProt P10635). Put plainly: Inhibition of CYP2D6 (unknown origin). It counts as ADME.
A short description of data set [1]: Tmax in rat at 3 mg/kg, po administered in 10% PEG300/90% PBS. Particulars: in vivo. Also noted: dose 3 mg/kg, route oral. The class given is ADME, organism-based.
A short description of data set [2]: Half life in rat at 1 mg/kg, iv administered in 10% PEG300/90% PBS. The class given is ADME, organism-based. Also noted: dose 1 mg/kg, route intravenous. The following applies: in vivo.
Data set [3] is filed under the species Rattus norvegicus. Put plainly: animal or person. Particulars: Sprague-Dawley, Plasma, po, 8 h, read-out: INH.
Data set [4] is described as follows: Permeability from apical to basolateral side in human Caco2 cells. It counts as ADME, cell-based. The following applies: Caco-2, read-out: permeability.
Data set [5] is described as follows: Intrinsic clearance in rat liver microsomes. The class given is ADME. For orientation: Microsomes from liver hold many membrane-bound enzymes, among them those of drug oxidation.
Data set [6] is described as follows: Permeability from basolateral to apical side in human Caco2 cells. The following applies: Caco-2, read-out: permeability. It counts as ADME, cell-based. For orientation: Passage across Caco-2 layers is used to estimate intestinal permeability.
Data set [7] can be described thus: Oral bioavailability in rat at 3 mg/kg administered in 10% PEG300/90% PBS. The class given is ADME, organism-based. The following applies: in vivo.
Data set [8] is described as follows: AUC (0 to 8 hrs) in rat at 3 mg/kg, po administered in 10% PEG300/90% PBS. The class given is ADME, organism-based. The following applies: plasma. Also noted: time < 8 hr, dose 3 mg/kg, route oral.
The nature of data set [9]: Cmax in rat at 3 mg/kg, po administered in 10% PEG300/90% PBS. Also noted: dose 3 mg/kg, route oral. The class given is ADME, organism-based. The following applies: in vivo.
Data set [10] is described as follows: Clearance in rat at 1 mg/kg, iv administered in 10% PEG300/90% PBS. It counts as ADME, organism-based. Also noted: dose 1 mg/kg, route intravenous. The following applies: in vivo.
The species entered for data set [11] is Rattus norvegicus. Put plainly: animal or person. Particulars: Sprague-Dawley, Plasma, po, 0.5 h, read-out: INH.
In data set [12] the target is Voltage-gated inwardly rectifying potassium channel KCNH2 (Homo sapiens, UniProt Q12809). Put plainly: Inhibition of human ERG by dofetilide binding assay.
Voltage-gated inwardly rectifying potassium channel KCNH2, sequence (Q12809 whole entry): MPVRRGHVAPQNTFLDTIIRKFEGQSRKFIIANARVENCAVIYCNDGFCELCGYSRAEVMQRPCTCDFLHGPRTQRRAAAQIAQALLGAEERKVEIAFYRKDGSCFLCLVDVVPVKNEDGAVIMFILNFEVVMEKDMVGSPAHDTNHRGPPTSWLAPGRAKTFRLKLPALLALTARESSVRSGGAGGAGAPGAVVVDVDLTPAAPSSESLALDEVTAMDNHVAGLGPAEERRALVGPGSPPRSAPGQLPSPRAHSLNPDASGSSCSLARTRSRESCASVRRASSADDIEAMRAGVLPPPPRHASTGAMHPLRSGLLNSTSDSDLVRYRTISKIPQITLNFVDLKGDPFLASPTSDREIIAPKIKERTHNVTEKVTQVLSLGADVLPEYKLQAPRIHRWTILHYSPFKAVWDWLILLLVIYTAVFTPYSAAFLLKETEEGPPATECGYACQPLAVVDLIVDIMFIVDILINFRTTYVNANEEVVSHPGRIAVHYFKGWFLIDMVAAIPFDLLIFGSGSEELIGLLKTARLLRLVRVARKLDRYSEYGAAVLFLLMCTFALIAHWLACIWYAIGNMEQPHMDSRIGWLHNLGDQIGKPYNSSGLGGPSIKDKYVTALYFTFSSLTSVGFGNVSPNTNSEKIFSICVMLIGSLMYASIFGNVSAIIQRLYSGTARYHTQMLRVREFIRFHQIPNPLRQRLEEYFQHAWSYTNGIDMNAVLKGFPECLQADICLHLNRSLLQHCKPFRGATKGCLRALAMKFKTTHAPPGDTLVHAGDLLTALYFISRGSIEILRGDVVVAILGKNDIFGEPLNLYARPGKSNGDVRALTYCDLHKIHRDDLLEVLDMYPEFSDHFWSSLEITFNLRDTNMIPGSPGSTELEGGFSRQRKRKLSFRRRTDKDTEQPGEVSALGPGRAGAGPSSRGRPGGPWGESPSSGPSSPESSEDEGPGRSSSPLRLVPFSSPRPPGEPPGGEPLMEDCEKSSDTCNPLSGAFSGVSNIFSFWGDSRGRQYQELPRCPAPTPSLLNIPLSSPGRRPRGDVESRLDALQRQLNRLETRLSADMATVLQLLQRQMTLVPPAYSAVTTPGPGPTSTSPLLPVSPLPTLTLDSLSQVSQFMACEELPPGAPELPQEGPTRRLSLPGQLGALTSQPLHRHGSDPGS
In another data set the target is Dipeptidyl peptidase 8 (Homo sapiens, UniProt Q6V1X1). Put plainly: Inhibition of human recombinant DPP8.
Dipeptidyl peptidase 8, sequence (Q6V1X1 whole entry): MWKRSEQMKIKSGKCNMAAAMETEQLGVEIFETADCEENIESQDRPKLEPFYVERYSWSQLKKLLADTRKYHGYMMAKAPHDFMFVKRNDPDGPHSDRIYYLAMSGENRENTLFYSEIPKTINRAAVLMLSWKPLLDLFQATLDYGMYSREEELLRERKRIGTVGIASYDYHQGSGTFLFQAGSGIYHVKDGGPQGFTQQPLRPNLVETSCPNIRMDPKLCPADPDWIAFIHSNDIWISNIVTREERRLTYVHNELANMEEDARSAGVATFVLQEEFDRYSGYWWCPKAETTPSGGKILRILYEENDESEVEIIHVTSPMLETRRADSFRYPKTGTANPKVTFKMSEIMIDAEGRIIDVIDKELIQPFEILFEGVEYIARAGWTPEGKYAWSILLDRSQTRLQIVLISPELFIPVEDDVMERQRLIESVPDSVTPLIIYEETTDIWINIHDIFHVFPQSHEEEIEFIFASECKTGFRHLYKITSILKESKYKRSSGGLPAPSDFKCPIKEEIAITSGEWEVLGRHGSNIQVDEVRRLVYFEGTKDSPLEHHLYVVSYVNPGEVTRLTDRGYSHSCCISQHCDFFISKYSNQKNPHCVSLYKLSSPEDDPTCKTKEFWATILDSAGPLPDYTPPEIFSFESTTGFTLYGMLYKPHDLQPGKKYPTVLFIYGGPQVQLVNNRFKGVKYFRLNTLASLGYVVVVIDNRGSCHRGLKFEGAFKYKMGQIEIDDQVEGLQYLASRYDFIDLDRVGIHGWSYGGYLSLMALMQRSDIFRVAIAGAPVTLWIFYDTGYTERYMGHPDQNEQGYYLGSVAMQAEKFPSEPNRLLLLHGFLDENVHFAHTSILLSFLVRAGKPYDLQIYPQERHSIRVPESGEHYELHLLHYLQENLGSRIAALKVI
Data set [13] can be described thus: Volume of distribution at steady state in rat at 1 mg/kg, iv administered in 10% PEG300/90% PBS. It counts as ADME, organism-based. Also noted: dose 1 mg/kg, route intravenous. The following applies: in vivo, read-out: Vdss.
The nature of data set [14]: Clearance in rat at 1 mg/kg, iv administered in PBS buffer at pH 6.8. The class given is ADME, organism-based. Also noted: dose 1 mg/kg, route intravenous. Particulars: in vivo.
A short description of data set [15]: Volume of distribution at steady state in rat at 1 mg/kg, iv administered in PBS buffer at pH 6.8. It counts as ADME, organism-based. Also noted: dose 1 mg/kg, route intravenous. The following applies: in vivo, read-out: Vdss.
A short description of data set [16]: Tmax in rat at 3 mg/kg, po administered in PBS buffer at pH 6.8. It counts as ADME, organism-based. Also noted: dose 3 mg/kg, route oral. Particulars: in vivo.
Data set [17] in a line: Oral bioavailability in rat at 3 mg/kg administered in PBS buffer at pH 6.8. The following applies: in vivo. It counts as ADME, organism-based.
The nature of data set [18]: AUC (0 to 8 hrs) in rat at 3 mg/kg, po administered in PBS buffer at pH 6.8. The class given is ADME, organism-based. Also noted: time < 8 hr, dose 3 mg/kg, route oral. The following applies: plasma.
Data set [19] can be described thus: Half life in rat at 1 mg/kg, iv administered in PBS buffer at pH 6.8. The class given is ADME, organism-based. Also noted: dose 1 mg/kg, route intravenous. Particulars: in vivo.
Data set [20] can be described thus: Cmax in rat at 3 mg/kg, po administered in PBS buffer at pH 6.8. Also noted: dose 3 mg/kg, route oral. The class given is ADME, organism-based. Particulars: in vivo.
Data set [21] can be described thus: Volume of distribution at steady state in rat at 1 mg/kg, iv administered in sodium acetate buffer at pH 4.63. Particulars: in vivo, read-out: Vdss. The class given is ADME, organism-based. Also noted: dose 1 mg/kg, route intravenous.
Data set [22] can be described thus: AUC (0 to 8 hrs) in rat at 3 mg/kg, po administered in sodium acetate buffer at pH 4.63. It counts as ADME, organism-based. Also noted: time < 8 hr, dose 3 mg/kg, route oral. Particulars: plasma.
The nature of data set [23]: Half life in rat at 1 mg/kg, iv administered in sodium acetate buffer at pH 4.63. Also noted: dose 1 mg/kg, route intravenous. The following applies: in vivo. It counts as ADME, organism-based.
Data set [24] in a line: Cmax in rat at 3 mg/kg, po administered in sodium acetate buffer at pH 4.63. Also noted: dose 3 mg/kg, route oral. The class given is ADME, organism-based. Particulars: in vivo.
A short description of data set [25]: Clearance in rat at 1 mg/kg, iv administered in sodium acetate buffer at pH 4.63. It counts as ADME, organism-based. Also noted: dose 1 mg/kg, route intravenous. Particulars: in vivo.
Data set [26] in a line: Tmax in rat at 3 mg/kg, po administered in sodium acetate buffer at pH 4.63. Particulars: in vivo. The class given is ADME, organism-based. Also noted: dose 3 mg/kg, route oral.
A short description of data set [27]: Oral bioavailability in rat at 3 mg/kg administered in sodium acetate buffer at pH 4.63. The class given is ADME, organism-based. The following applies: in vivo.
The species entered for data set [28] is Rattus norvegicus. Put plainly: animal or person. The following applies: Sprague-Dawley, Plasma, po, read-out: INH.

Cytochrome P450 2D6, sequence (P10635 whole entry): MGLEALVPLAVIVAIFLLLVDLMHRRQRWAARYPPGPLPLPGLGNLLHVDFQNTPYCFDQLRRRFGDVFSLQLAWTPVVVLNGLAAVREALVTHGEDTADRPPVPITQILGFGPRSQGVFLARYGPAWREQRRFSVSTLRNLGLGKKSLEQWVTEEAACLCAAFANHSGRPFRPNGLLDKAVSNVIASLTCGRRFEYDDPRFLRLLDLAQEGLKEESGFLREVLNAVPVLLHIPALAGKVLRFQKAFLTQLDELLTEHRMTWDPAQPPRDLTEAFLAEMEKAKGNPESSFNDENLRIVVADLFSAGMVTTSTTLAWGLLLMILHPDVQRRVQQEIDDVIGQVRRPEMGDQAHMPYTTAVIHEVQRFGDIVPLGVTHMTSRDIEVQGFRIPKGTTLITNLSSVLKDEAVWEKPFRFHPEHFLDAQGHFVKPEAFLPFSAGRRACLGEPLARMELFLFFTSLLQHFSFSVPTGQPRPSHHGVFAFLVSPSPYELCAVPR
Dipeptidyl peptidase 9, sequence (Q86TI2 whole entry): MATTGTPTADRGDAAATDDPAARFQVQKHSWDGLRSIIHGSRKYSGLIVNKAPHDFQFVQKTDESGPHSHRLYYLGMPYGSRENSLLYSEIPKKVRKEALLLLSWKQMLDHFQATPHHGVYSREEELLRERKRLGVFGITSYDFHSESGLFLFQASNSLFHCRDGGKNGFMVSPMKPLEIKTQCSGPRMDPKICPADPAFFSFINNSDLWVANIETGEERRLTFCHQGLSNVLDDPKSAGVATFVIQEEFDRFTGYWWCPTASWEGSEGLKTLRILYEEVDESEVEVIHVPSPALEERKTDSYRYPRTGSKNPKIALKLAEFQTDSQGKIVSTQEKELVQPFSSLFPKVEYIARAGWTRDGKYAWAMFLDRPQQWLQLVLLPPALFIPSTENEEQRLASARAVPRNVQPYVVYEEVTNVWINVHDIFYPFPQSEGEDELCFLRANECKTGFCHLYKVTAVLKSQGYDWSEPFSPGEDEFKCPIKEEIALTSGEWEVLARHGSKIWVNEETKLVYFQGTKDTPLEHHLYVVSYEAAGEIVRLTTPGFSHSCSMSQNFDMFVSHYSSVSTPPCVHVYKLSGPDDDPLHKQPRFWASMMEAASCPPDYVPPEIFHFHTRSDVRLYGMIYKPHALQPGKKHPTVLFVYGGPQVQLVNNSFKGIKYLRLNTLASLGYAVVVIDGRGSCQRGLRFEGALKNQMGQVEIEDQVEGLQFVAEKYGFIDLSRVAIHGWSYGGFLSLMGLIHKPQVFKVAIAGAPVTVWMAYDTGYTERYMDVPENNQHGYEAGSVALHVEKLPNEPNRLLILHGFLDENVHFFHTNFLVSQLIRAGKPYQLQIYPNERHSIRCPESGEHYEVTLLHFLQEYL

As for `Cc1ccc(=O)n([C@H]2CC[C@](CN)(c3cccc(Cl)c3)CC2)n1`, the pIC50 on Dipeptidyl peptidase 9 was < 4.52.
As for `NC[C@]1(c2cccc(Cl)c2)CC[C@H](n2nc(-c3cccnc3)ccc2=O)CC1`, the pIC50 on Cytochrome P450 2D6 is < 5.00; on Dipeptidyl peptidase 9 it was < 4.52; in data set [12] it was 5.36; on Dipeptidyl peptidase 8 it was < 4.52. Further, the time to peak (Tmax) in data set [1] was 1.8 h. In data set [2], this compound showed a half-life of 2.2 h. In addition, the inhibition in vivo at 3 mg/kg in the data set filed under Rattus norvegicus [3] was determined as 80%; in the data set listed under Rattus norvegicus [11] it was 91%. Moreover, the Papp A→B in data set [4] was found to be 8.6 ×10⁻⁶ cm/s. This compound displayed a CLint in data set [5] of 51.1 µL/min/mg. Further, in data set [6], the Papp B→A is 13 ×10⁻⁶ cm/s. The bioavailability in data set [7] was found to be 92%. In [8], the AUC(0-t) at 8 h was 4.01 µM·h. Besides, the Cmax in [9] was found to be 921 nM. Moreover, in [10], the clearance is 29 mL/min/kg. For the same compound, the Vd in data set [13] is 3.9 L/kg.
Consider `NC[C@]1(c2cccc(Cl)c2)CC[C@H](N2CCn3c(nnc3C(F)(F)F)C2=O)CC1`, for which the pIC50 is 5.35 against Cytochrome P450 2D6 and < 4.52 in data set [12]. The same compound had a clearance in [14] of 69 mL/min/kg. Besides, the Papp A→B in data set [4] is 1.6 ×10⁻⁶ cm/s. Besides, the Vd in data set [15] was found to be 11.7 L/kg. Further, the CLint in [5] was 21.9 µL/min/mg. The Papp B→A in [6] is 4.8 ×10⁻⁶ cm/s. Moreover, the Tmax in data set [16] was determined as 3.3 h. This compound had a bioavailability in [17] of 17%. In [18], this compound showed an area under the curve AUC(0-t) at 8 h of 0.214 µM·h. This compound also had a half-life in data set [19] of 2.7 h. For the same compound, the Cmax in data set [20] is 57.8 nM.
With `NC[C@]1(c2cccc(Cl)c2)CC[C@H](N2CCc3c(nc(C(F)(F)F)nc3C3CC3)C2=O)CC1`, the negative-log IC50 (pIC50) at Cytochrome P450 2D6 is 5.00; in data set [12], 6.59. The Vd in data set [21] amounted to 2.1 L/kg. The compound also gave an exposure AUC(0-t) at 8 h in data set [22] of 7.91 µM·h. This compound also showed a half-life in data set [23] of 2.3 h. In addition, the Papp A→B in data set [4] stood at 4.4 ×10⁻⁶ cm/s. The compound also returned a CLint in data set [5] of 43.4 µL/min/mg. Also, in data set [6], the Papp B→A was 11 ×10⁻⁶ cm/s. The compound further displayed a maximum concentration (Cmax) in data set [24] of 1900 nM. In data set [25], this compound registered a clearance of 9.5 mL/min/kg. The Tmax in [26] was determined as 3.3 h. Also, in data set [27], the bioavailability was found to be 78%.
Turning to `NC[C@]1(c2cccc(Cl)c2)CC[C@H](N2CCn3c(nnc3C(F)(F)F)C2)CC1`, the pIC50 at Dipeptidyl peptidase 9 is 4.52.
Regarding `NC[C@]1(c2cccc(Cl)c2)CC[C@H](N2CCc3c(nc(C(F)(F)F)nc3C3CC3)C2)CC1`, the pIC50 on Dipeptidyl peptidase 9 and on Dipeptidyl peptidase 8 was < 4.52 throughout.
For `N[C@@H](CC(=O)N1CCn2c(nnc2C(F)(F)F)C1)Cc1cc(F)c(F)cc1F` [SITAGLIPTIN], the inhibition in vivo at 3 mg/kg in the data set filed under Rattus norvegicus [3] was 30%; in the data set filed under Rattus norvegicus [28], 82%.

As a reminder, the pIC50 is −log10 of the IC50, conventionally taken in molar units. The term Tmax denotes the time at which the peak concentration occurs. As usually defined, the half-life is the time needed for the level to fall by half in the phase considered. The term bioavailability denotes the share of a dose that reaches the circulation, judged against a reference dose that is usually intravenous. For orientation: AUC(0-t) means exposure summed from dosing to a finite time, without extrapolation to infinity. A low value points to low exposure. The Cmax is the highest concentration seen after dosing. Broadly, the clearance is the rate of elimination divided by the concentration.
